Assay [1] deals with T1, Coagulation factor X (Homo sapiens, UniProt P00742).
Assay [2] has as its target Prothrombin (Homo sapiens, UniProt P00734). Kind of assay: In vitro inhibitory constant against human thrombin (FIIa).
Assay [3] deals with T2, Serine protease 1 (Homo sapiens, UniProt P07477).
Assay [4] concerns the target T2, Serine protease 1. The source holds these as a separate data set.
For assay [5], the target named is T1, Coagulation factor X. The source holds these as a separate data set.

This is an account of results in ChEMBL document CHEMBL1136066, “Non-covalent thrombin inhibitors featuring P(3)-heterocycles with P(1)-monocyclic arginine surrogates” (Bioorg Med Chem Lett, 2002).

T1 sequence (P00742 41-179 limits assumed): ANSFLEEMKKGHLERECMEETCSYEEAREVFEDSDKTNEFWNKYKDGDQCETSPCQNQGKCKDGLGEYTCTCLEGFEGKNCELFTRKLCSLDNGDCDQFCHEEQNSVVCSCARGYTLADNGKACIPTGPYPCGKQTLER
T1 sequence (P00742 235-488 limits assumed): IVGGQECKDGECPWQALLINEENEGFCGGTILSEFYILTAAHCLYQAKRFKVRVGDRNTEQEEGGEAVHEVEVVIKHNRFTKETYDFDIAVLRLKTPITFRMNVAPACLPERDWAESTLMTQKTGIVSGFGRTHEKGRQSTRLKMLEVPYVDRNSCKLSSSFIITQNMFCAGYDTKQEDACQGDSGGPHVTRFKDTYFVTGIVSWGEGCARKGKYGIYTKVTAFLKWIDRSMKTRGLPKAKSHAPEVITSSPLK
T2 sequence (P07477 whole entry): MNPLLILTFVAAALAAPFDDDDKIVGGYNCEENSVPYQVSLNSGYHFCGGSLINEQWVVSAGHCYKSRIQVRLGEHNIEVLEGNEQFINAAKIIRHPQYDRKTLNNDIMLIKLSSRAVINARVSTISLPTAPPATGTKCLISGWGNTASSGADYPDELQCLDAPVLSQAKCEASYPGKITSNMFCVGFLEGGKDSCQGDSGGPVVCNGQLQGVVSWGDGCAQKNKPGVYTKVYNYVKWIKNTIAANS

Turning to `Cc1nc(N)ncc1CNC(=O)Cn1c(C)cnc(NCCc2ccccc2)c1=O`, the figures for the Ki entry in assay [1], in assay [2] and in assay [3] were “Not Active”, 197 nM and “Not Active”, respectively.

Take `COC(=O)c1ccc(F)cc1CS(=O)(=O)Nc1ccc(C)n(CC(=O)N[C@H](CCCN=C(N)N)C(=O)O)c1=O`: the Ki (as a rule, a dissociation constant, usually derived from enzyme kinetics or from competition with a known ligand) in assay [4] was determined as 16.6 nM; in assay [2], 0.1 nM; in assay [5] it was 1810 nM.

As for `Cc1ccc(NS(=O)(=O)Cc2ccccc2)c(=O)n1CC(=O)NCc1ccc(C(=N)N)cc1`, the results for the Ki result in assay [1], in assay [4] and in assay [2] were “Not Active”, 49.3 nM and 0.37 nM, respectively.

As to `Cc1nc(N)ncc1CNC(=O)Cn1c(C)cnc(NCC(F)(F)c2ccccc2)c1=O`, the inhibitory constant (Ki) result was “Not Active” in assay [1], 141 nM in assay [2] and “Not Active” in assay [3].

For the compound `Cc1nc(N)ccc1CNC(=O)Cn1c(C)cnc(NCCc2ccccc2)c1=O` [L-375378], the Ki in assay [2] is 1 nM; in assay [3], “Not Active”.

For the compound `Cc1nc(N)ncc1CNC(=O)Cn1c(C)ccc(NS(=O)(=O)Cc2ccccc2)c1=O`, the Ki entry in assay [1] was “Not Active”; in assay [2], 85.2 nM; in assay [3], “Not Active”.

Take `Cc1cnc(NCCc2ccccc2)c(=O)n1CC(=O)NCc1cnc(N)nc1`: the Ki result in assay [1] is “Not Active”; in assay [2] it was 357 nM; in assay [3] it was “Not Active”.

On to `Cc1cnc(NCCc2ccccc2)c(=O)n1CC(=O)NC[C@@H]1CNC(N)=N[C@@H]1C`, for which the Ki entry in assay [1] was “Not Active”; in assay [2], 3.2 nM; in assay [3], “Not Active”.

As to `Cc1cnc(NCCc2ccccc2)c(=O)n1CC(=O)NCc1ccc(C(=N)NO[Si](C)(C)C(C)(C)C)s1`, the Ki result in assay [1] is “Not Active”; in assay [2], 13.2 nM; in assay [3], “Not Active”.

Take `Cc1cnc(NCC2(c3ccc(Cl)cc3)CCC2)c(=O)n1CC(=O)NCc1cnc(N)cn1`: the Ki result in assay [1] is “Not Active”; in assay [2] it was 5.5 nM; in assay [3], “Not Active”.

In the case of `Cc1cnc(NCC(F)(F)c2ccccc2)c(=O)n1CC(=O)NCc1cnc(N)cn1`, the Ki result in assay [1] was “Not Active”; in assay [2], 9.8 nM; in assay [3] it was “Not Active”.

As for `Cc1ccc(NS(=O)(=O)Cc2ccccc2)c(=O)n1CC(=O)NCc1nc(CN)cs1`, the Ki is > 168 nM in assay [4], 136 nM in assay [2] and > 338 nM in assay [5].

As for `Cc1cnc(NCC(F)(F)c2ccc(F)cc2)c(=O)n1CC(=O)NCc1cnc(N)cn1`, the results for the Ki result in assay [1], in assay [2] and in assay [3] were “Not Active”, 5.9 nM and “Not Active”, respectively.

`Cc1cnc(NCCc2ccccc2)c(=O)n1CC(=O)NCc1ccc(C(=N)N)cc1`: the figures for the Ki entry in assay [1] and in assay [4] were “Not Active” and 19.7 nM, respectively.

Consider `Cc1ccc(NS(=O)(=O)Cc2ccccc2)c(=O)n1CC(=O)NCc1ccc(C(=N)N)s1`, for which the results for the Ki in assay [4], in assay [2] and in assay [5] were 13.6 nM, 0.1 nM and 96.4 nM, respectively.

Consider `COc1cccc(S(=O)(=O)Nc2cccn(CC(=O)NCc3nc(C(=N)N)cs3)c2=O)c1`, for which the figures for the Ki in assay [4], in assay [2] and in assay [5] were > 168 nM, 5.9 nM and 179 nM, respectively.

Regarding `Cc1ccc(NS(=O)(=O)Cc2ccccc2F)c(=O)n1CC(=O)N[C@H](CCCNC(=N)N)C(=O)O` [CVS-2359], the values for the Ki in assay [4], in assay [2] and in assay [5] were 12.4 nM, 0.14 nM and 674 nM, respectively.

For the compound `Cc1cnc(NCCc2ccccc2)c(=O)n1CC(=O)NCc1ccc(C(=N)N)s1`, the Ki result is “Not Active” in assay [1], 4.4 nM in assay [4] and 0.12 nM in assay [2].

On to `Cc1ccc(NS(=O)(=O)Cc2ccccc2)c(=O)n1CC(=O)NCc1cnc(N)nc1`, for which the figures for the Ki entry in assay [1], in assay [2] and in assay [3] were “Not Active”, 462 nM and “Not Active”, respectively.

Take `Cc1ccc(NS(=O)(=O)Cc2ccccc2)c(=O)n1CC(=O)NCc1ccc(C(=N)N)c(F)c1`: the Ki result in assay [1] was “Not Active”; in assay [2], 3.6 nM; in assay [3], “Not Active”.

Take `Cc1cnc(NCCc2ccccc2)c(=O)n1CC(=O)NCc1ccc(C(=N)NO)s1`: the results for the Ki entry in assay [1], in assay [2] and in assay [3] were “Not Active”, 30.8 nM and “Not Active”, respectively.

On to `COc1cccc(S(=O)(=O)Nc2cccn(CC(=O)NCc3ccc(C(=N)N)cc3Cl)c2=O)c1`, for which the Ki in assay [4] turned out to be 76.5 nM; in assay [2], 20.8 nM.

As for `Cc1ccc(NS(=O)(=O)Cc2ccccc2)c(=O)n1CC(=O)NCc1cnc(N)cn1`, the values for the Ki entry in assay [1], in assay [2] and in assay [3] were “Not Active”, 158 nM and “Not Active”, respectively.

In the case of `Cc1ccc(NS(=O)(=O)Cc2ccccc2)c(=O)n1CC(=O)NCC1CN=C(N)NC1` (stereo unspecified), the values for the Ki result in assay [1], in assay [2] and in assay [3] were “Not Active”, 1 nM and “Not Active”, respectively.

For `COc1cccc(S(=O)(=O)Nc2cccn(CC(=O)NCc3ccc(C(=N)N)cc3F)c2=O)c1`, the Ki in assay [4] stood at 31.3 nM; in assay [2] it was 6 nM; in assay [5], 249 nM.

Regarding `Cc1nc(N)ncc1CNC(=O)Cn1c(C)ccc(NS(=O)(=O)Cc2cccc3c2OCCO3)c1=O`, the Ki result in assay [1] and in assay [3] was “Not Active” throughout.

On to `COc1cccc(S(=O)(=O)Nc2cccn(CC(=O)NCc3ccc(C(=N)N)cc3)c2=O)c1`, for which the Ki in assay [4] worked out at 18.7 nM; in assay [2], 5.3 nM; in assay [5], 153 nM.

Take `Cc1cnc(NCCc2ccccc2)c(=O)n1CC(=O)NCc1cnc(N)cn1`: the Ki entry in assay [1] and in assay [3] was “Not Active” each time.

For `Cc1cnc(NCCc2ccccc2)c(=O)n1CC(=O)NCC1CN=C(N)NC1` (stereo unspecified), the values for the Ki result in assay [1], in assay [2] and in assay [3] were “Not Active”, 1.9 nM and “Not Active”, respectively.

In the case of `Cc1nc(N)ccc1CNC(=O)Cn1c(C)ccc(NS(=O)(=O)Cc2ccccc2)c1=O` [L-374087], the Ki in assay [2] was 0.68 nM; in assay [3], “Not Active”.

Turning to `Cc1ccc(NS(=O)(=O)Cc2ccccc2)c(=O)n1CC(=O)NC[C@@H]1CNC(N)=N[C@@H]1C`, the Ki result was “Not Active” in assay [1], 1.1 nM in assay [2] and “Not Active” in assay [3].

With `Cc1nc(N)ncc1CNC(=O)Cn1c(C)cnc(NCCc2ccc3c(c2)CCO3)c1=O`, the figures for the Ki result in assay [1], in assay [2] and in assay [3] were “Not Active”, 324 nM and “Not Active”, respectively.

On to `COc1cccc(S(=O)(=O)Nc2cccn(CC(=O)NCc3ccc(C(=N)N)cc3OC)c2=O)c1`, for which the Ki in assay [4] is 11.9 nM; in assay [2] it was 1.6 nM; in assay [5] it was 76.8 nM.

Consider `Cc1nc(N)nc(C)c1CNC(=O)Cn1c(C)ccc(NS(=O)(=O)Cc2ccccc2)c1=O`, for which the Ki result was “Not Active” in assay [1], 281 nM in assay [2] and “Not Active” in assay [3].
